As usually defined, the IC50 is the concentration that inhibits the measured activity by half. Usually EC50 stands for the concentration that produces a half-maximal response. Low values mean greater potency, high ones weaker potency.

Consider 17 compounds from patent US20100119479A1, “THERAPEUTIC ANTIVIRAL PEPTIDES” (INTERMUNE, INC., priority 2008, published 2010).

In assay [1] the target is T1, full-length NS3/NS4A-2 (HCV NS3 protease) (Hepatitis C virus genotype 1b, UniProt Q9WMX2).
T1 construct: Recombinant E. coli or Baculovirus full-length NS3; host or cells: E. coli or baculovirus (BV) expression
T1 sequence (Q9WMX2 1027-1657): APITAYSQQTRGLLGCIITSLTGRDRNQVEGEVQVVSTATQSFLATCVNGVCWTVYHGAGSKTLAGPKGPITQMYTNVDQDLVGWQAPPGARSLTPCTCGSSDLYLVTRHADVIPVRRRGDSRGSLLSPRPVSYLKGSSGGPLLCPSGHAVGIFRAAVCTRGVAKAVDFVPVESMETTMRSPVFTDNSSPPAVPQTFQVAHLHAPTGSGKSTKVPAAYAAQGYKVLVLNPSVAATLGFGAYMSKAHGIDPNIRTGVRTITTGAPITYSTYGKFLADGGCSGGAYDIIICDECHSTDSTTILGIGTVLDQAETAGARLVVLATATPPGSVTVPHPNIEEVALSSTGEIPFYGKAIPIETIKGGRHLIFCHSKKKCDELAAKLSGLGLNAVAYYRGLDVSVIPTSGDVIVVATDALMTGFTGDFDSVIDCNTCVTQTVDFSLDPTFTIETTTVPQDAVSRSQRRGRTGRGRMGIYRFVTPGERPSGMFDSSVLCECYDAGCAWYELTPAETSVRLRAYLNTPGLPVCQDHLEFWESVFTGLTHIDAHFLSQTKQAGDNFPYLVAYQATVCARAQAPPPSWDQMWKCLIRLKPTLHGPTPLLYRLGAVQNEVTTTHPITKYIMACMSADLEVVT
T1 sequence (Q9WMX2 1658-1711): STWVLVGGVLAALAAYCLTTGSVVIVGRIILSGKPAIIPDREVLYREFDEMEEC
As to the kind of experiment: NS3 Inhibition Assay (NS3-NS4 protease assay, RETS1 substrate). Type of assay: biochemical. The settings on record: NS3/NS4A-2 protease. On the procedure:
NS3 Complex Formation with NS4A-2.
Recombinant E. coli or Baculovirus full-length NS3 was diluted to 3.33 μM with assay buffer and transferred material to an eppendorf tube and placed in a water bath in a 4° C. refrigerator. The appropriate amount of NS4A-2 diluted to […] in assay buffer was added to equal the volume of NS3 above (conversion factor—3.8 mg/272 μL assay buffer). The material was transferred to an eppendorf tube and placed in water bath in a 4° C. refrigerator.
After equilibration to 4° C., equal volumes of NS3 and NS4A-2 solutions were combined in an eppendorf tube, mix gently with a manual pipettor, and incubate mixture for 15 minutes in the 4° C. water bath. Final concentrations in the mixture are 1.67 μM NS3, 4.15 mM NS4A-2 (2485-fold molar excess NS4A-2).
After 15 minutes at 4° C., the NS3/NS4A-2 eppendorf tube was removed and place it in a room temperature water bath for 10 minutes. NS3/NS4A-2 was aliquoted at appropriate volumes and store at −80° C. (E. coli NS3 run at 2 nM in assay, aliquot at 25 μL. BV NS3 run at 3 nM in assay, aliquot at 30 μL).
Step a. Sample compounds were dissolved to 10 mM in DMSO then diluted to 2.5 mM (1:4) in DMSO. Typically, compounds were added to an assay plate at 2.5 mM concentration, yielding upon dilution a starting concentration of 50 microM in the assay inhibition curve. Compounds were serial diluted in assay buffer to provide test solutions at lower concentrations.
Step b. The E. coli. NS3/NS4A-2 was diluted to 4 nM NS3 (1:417.5 of 1.67 μM stock−18 μL1.67 μM stock+7497 μL assay buffer). The BV NS3/NS4A-2 was diluted to 6 nM NS3 (1:278.3 of 1.67 μM stock−24 μL1.67 μM stock+6655 μL assay buffer).
Step c. Using the manual multichannel pipettor, and being careful not to introduce bubbles into the plate, 50 μL assay buffer were added to wells A01-H01 of a black Costar 96-well polypropylene storage plate.
Step d. Using the manual multichannel pipettor, and being careful not to introduce bubbles into the plate, 50 μL of diluted NS3/NS4A-2 from Step b were added to wells A02-H12 of the plate in Step c.
Step e. Using the manual multichannel pipettor, and being careful not to introduce bubbles into the plate, 25 μL of the wells in drug dilution plate in Step a were transferred to corresponding wells in assay plate in Step d. The tips on the multichannel pipettor were changed for each row of compounds transferred.
Step f Using the manual multichannel pipettor, and being careful not to introduce bubbles into the plate, the contentes of the wells from the assay plate in Step e were mixed by aspirating and dispensing 35 μL of the 75 μL in each well five times. The tips on multichannel pipettor were changed for each row of wells mixed.
Step g. The plate was covered with a polystyrene plate lid, and the plate from Step f containing NS3 protease and sample compounds was pre-incubated 10 minutes at room temperature.
While plate from Step g is pre-incubating, the RETS1 substrate was diluted in a 15 mL polypropylene centrifuge tube. The RETS1 substrate was diluted to 8 μM (1:80.75 of 646 μM stock—65 μL 646 μM stock+5184 μL assay buffer).
After the plate in Step g was done pre-incubating, and using the manual multichannel, 25 μL of substrate were added to all wells on the plate. The contents of the wells of the plate were quickly mixed, as in Step f, mixing 65 μL of the 100 μL in the wells.
The plate was read in kinetic mode on the Molecular Devices SpectraMax Gemini XS plate reader. Reader settings: Read time: 30 minutes, Interval: 36 seconds, Reads: 51, Excitation λ: 335 nm, Emission λ: 495 nm, cutoff: 475 nm, Automix: off, Calibrate: once, PMT: high, Reads/well: 6, Vmax pts: 21 or 28/51 depending on length of linearity of reaction
IC50s are determined using a four parameter curve fit equation, and converted to Ki's using the following Km's: […]
Full-length E. coli NS3−2.03 μM
Full-length BV NS3−1.74 μM
where Ki=IC50/(1+[S]/Km))

Assay [2] relates to HCV sub-genomic replicon, GS4.3 (HuH-7 hepatoma cells). Put plainly: Quantitation by ELISA of NPTII in the HCV sub-genomic replicon, GS4.3. To be noted: Hepatitis C virus, GS4.3 replicon cells, 72 h incubation. Type of assay: cell-based. From the text:
Quantitation by ELISA of the Selectable Marker Protein, Neomycin Phosphotransferase II (NPTII) in the HCV Sub-Genomic Replicon, GS4.3
The HCV sub-genomic replicon (1377/NS3-3′, accession No. AJ242652), stably maintained in HuH-7 hepatoma cells, was created by Lohmann et al. Science 285: 110-113 (1999). The replicon-containing cell culture, designated GS4.3, was obtained from Dr. Christoph Seeger of the Institute for Cancer Research, Fox Chase Cancer Center, Philadelphia, Pa.
GS4.3 cells were maintained at 37° C., 5% CO2, in DMEM (Gibco 11965-092) supplemented with L-glutamine 200 mM (100×) (Gibco25030-081), non-essential amino acids (NEAA)(Biowhittaker 13-114E), heat-inactivated (HI) Fetal Bovine Serum(FBS)(Hyclone SH3007.03) and 750 μg/mL geneticin (G418)(Gibco 10131-035). Cells were sub-divided 1:3 or 4 every 2-3 days.
24 h prior to the assay, GS4.3 cells were collected, counted, and plated in 96-well plates (Costar 3585) at 7500 cells/well in […] standard maintenance medium (above) and incubated in the conditions above. To initiate the assay, culture medium was removed, cells were washed once with PBS (Gibco 10010-023) and 90 μl Assay Medium (DMEM, L-glutamine, NEAA, 10% HI FBS, no G418) was added. Inhibitors were made as a 10× stock in Assay Medium, (3-fold dilutions from 10 μM to […] final concentration, final DMSO concentration 1%), […] were added to duplicate wells, plates were rocked to mix, and incubated as above for 72 h.
An NPTII Elisa kit was obtained from AGDIA, Inc. (Compound direct ELISA test system for Neomycin Phosphotransferase II, PSP 73000/4800). Manufacturer's instructions were followed, with some modifications. 10×PEB-1 lysis buffer was made up to include 500 μM PMSF (Sigma P7626, 50 mM stock in isopropanol). After 72 h incubation, cells were washed once with PBS and […] PEB-1 with PMSF was added per well. Plates were agitated vigorously for 15 minutes, room temperature, then frozen at −70° C. Plates were thawed, lysates were mixed thoroughly, and 100 μl were applied to an NPTII Elisa plate. A standard curve was made. Lysate from DMSO-treated control cells was pooled, serially diluted with PEB-1 with PMSF, and applied to duplicate wells of the ELISA plate, in a range of initial lysate amount of 150 μL-2.5 μL. In addition, 100 μL buffer alone was applied in duplicate as a blank. Plates were sealed and gently agitated at room temperature for 2 h. Following capture incubation, the plates were washed 5×300 μL with PBS-T (0.5% Tween-20, PBS-T was supplied in the ELISA kit). For detection, a 1× dilution of enzyme conjugate diluent MRS-2 (5×) was made in PBS-T, into which 1:100 dilutions of enzyme conjugates A and B were added, as per instructions. Plates were resealed, and incubated with agitation, covered, room temperature, for 2 h. The washing was then repeated and 100 μL, of room temperature TMB substrate was added. After approximately 30 minutes incubation (room temperature, agitation, covered), the reaction was stopped with 50 μL, 3M sulfuric acid. Plates were read at 450 nm on a Molecular Devices Versamax plate reader.
Inhibitor effect was expressed as a percentage of DMSO-treated control signal, and inhibition curves were calculated using a 4-parameter equation: y=A+((B−A)/(1+((C/x)̂D))), where C is half-maximal activity or EC50.
(In an ELISA, binding on a coated surface is turned into a signal by an enzyme label.)

SMILES strings stand for the structures.

`CC[C@@H]1C[C@]1(NC(=O)[C@@H]1C[C@@H](OC(=O)N2Cc3cccc(F)c3C2)CN1C(=O)[C@@H](Nc1cccc(C(=O)NCCN(C)C)c1)C(C)(C)C)C(=O)NS(=O)(=O)C1CC1` [Compound 13] yielded an IC50 in assay [1] of under 100 nM. Also, the EC50 in assay [2] was over 1000 nM.

For `CC[C@@H]1C[C@]1(NC(=O)[C@@H]1C[C@@H](OC(=O)N2Cc3cccc(F)c3C2)CN1C(=O)[C@@H](Nc1cccc(S(=O)(=O)N2CCOCC2)c1)C(C)(C)C)C(=O)NS(=O)(=O)C1CC1` [Compound 10], the IC50 in assay [1] is under 100 nM. For the same compound, in assay [2], the EC50 was over 1000 nM.

Consider `CC[C@@H]1C[C@]1(NC(=O)[C@@H]1C[C@@H](OC(=O)N2Cc3ccc(NCCN4CCOCC4)cc3C2)CN1C(=O)[C@@H](Nc1cc(F)cc(C(F)(F)F)c1)C(C)(C)C)C(=O)NS(=O)(=O)C1(C)CC1` [Compound 314], for which the IC50 in assay [1] is under 100 nM. The EC50 in assay [2] is under 100 nM.

`CC[C@@H]1C[C@]1(NC(=O)[C@@H]1C[C@@H](OC(=O)N2Cc3cccc(F)c3C2)CN1C(=O)[C@@H](Nc1cccc(OC(F)(F)F)c1)C(C)(C)C)C(=O)NS(=O)(=O)C1(C)CC1` [Compound 289] displayed an IC50 in assay [1] of under 100 nM. Moreover, the EC50 in assay [2] is under 100 nM.

As for `CC(C)(C)[C@H](Nc1ccc(F)c(C(F)(F)F)c1)C(=O)N1C[C@H](OC(=O)N2Cc3cccc(Cl)c3C2)C[C@H]1C(=O)N[C@]1(C(=O)NS(=O)(=O)C2CC2)C[C@H]1C1CC1` [Compound 294], the IC50 in assay [1] was under 100 nM. In addition, the EC50 in assay [2] is under 100 nM.

In assay [2], `CC[C@@H]1C[C@]1(NC(=O)[C@@H]1C[C@@H](Oc2cc(-c3nc(C(C)C)cs3)nc3c(C)c(OC)ccc23)CN1C(=O)[C@@H](Nc1cc(F)cc(C(F)(F)F)c1)C(C)(C)C)C(=O)NS(=O)(=O)C1(C)CC1` [Compound 300] had an EC50 of under 100 nM.

Consider `CC[C@@H]1C[C@]1(NC(=O)[C@@H]1C[C@@H](OC(=O)N2Cc3cccc(F)c3C2)CN1C(=O)[C@@H](Nc1cccc(C(F)(F)F)c1)C(C)(C)C)C(=O)NS(=O)(=O)C1(C)CC1` [Compound 290], for which, in assay [1], the IC50 was under 100 nM. In addition, the EC50 in assay [2] is under 100 nM.

In assay [1], `C=C[C@@H]1C[C@]1(NC(=O)[C@H]1Cc2cc(Oc3cccc(Cl)c3)ccc2CN1C(=O)[C@@H](Nc1ccc(F)cc1)C(C)(C)C)C(=O)NS(=O)(=O)C1(C)CC1` [Compound 26] had an IC50 of 100 to 1000 nM.

On to `C=C[C@@H]1C[C@]1(NC(=O)[C@@H]1Cc2cc(Oc3cccc(Cl)c3)ccc2CN1C(=O)[C@@H](Nc1ccc(F)cc1)C(C)(C)C)C(=O)NS(=O)(=O)C1CC1` [Compound 27], for which the IC50 in assay [1] is under 100 nM.

As for `CC[C@@H]1C[C@]1(NC(=O)[C@@H]1C[C@@H](OC(=O)N2Cc3cccc(Cl)c3C2)CN1C(=O)[C@@H](Nc1cccc(C(F)(F)F)c1)C(C)(C)C)C(=O)NS(=O)(=O)C1(C)CC1` [Compound 282], the IC50 in assay [1] was under 100 nM. The compound also came in with an EC50 in assay [2] of under 100 nM.

As for `C=C[C@@H]1C[C@]1(NC(=O)[C@@H]1C[C@@H](OC(=O)N2Cc3cccc(F)c3C2)CN1C(=O)[C@@H](Nc1cc(F)cc(C(F)(F)F)c1)C(C)(C)C)C(=O)NS(=O)(=O)C1(C)CC1` [Compound 288], in assay [1], the IC50 is under 100 nM. The compound also registered an EC50 in assay [2] of under 100 nM.

`CC[C@@H]1C[C@]1(NC(=O)[C@@H]1C[C@@H](OC(=O)N2Cc3cccc(F)c3C2)CN1C(=O)[C@@H](Nc1ccc(C(=O)N2CCOCC2)cc1)C(C)(C)C)C(=O)NS(=O)(=O)C1CC1` [Compound 11]: in assay [1], the IC50 is under 100 nM. The same compound registered an EC50 in assay [2] of over 1000 nM.

Compound `CC(C)(C)[C@H](Nc1ccc(F)c(C(F)(F)F)c1)C(=O)N1C[C@H](OC(=O)N2Cc3cccc(Cl)c3C2)C[C@H]1C(=O)N[C@]1(C(=O)NS(=O)(=O)C2(C)CC2)C[C@H]1C1CC1` [Compound 310] showed an IC50 in assay [1] of under 100 nM. This compound came in with an EC50 in assay [2] of under 100 nM.

For `CC[C@@H]1C[C@]1(NC(=O)[C@@H]1C[C@@H](OC(=O)N2Cc3cccc(F)c3C2)CN1C(=O)[C@@H](Nc1cccc(C(=O)N2CCNCC2)c1)C(C)(C)C)C(=O)NS(=O)(=O)C1CC1` [Compound 9], in assay [1], the IC50 was under 100 nM. The EC50 in assay [2] is over 1000 nM.

In the case of `C=C[C@@H]1C[C@]1(NC(=O)[C@@H]1Cc2cc(Oc3cccc(Cl)c3)ccc2CN1C(=O)[C@@H](Nc1cccc(C(F)(F)F)c1)C(C)(C)C)C(=O)NS(=O)(=O)C1(C)CC1` [Compound 21], the concentration for half-maximal inhibition (IC50) in assay [1] is under 100 nM.

On to `C=C[C@@H]1C[C@]1(NC(=O)[C@@H]1Cc2cc(Oc3cccc(Cl)c3)ccc2CN1C(=O)[C@@H](Nc1ccc(F)cc1)C(C)(C)C)C(=O)NS(=O)(=O)C1CC1` [Compound 28], for which the IC50 in assay [1] lay within 100 to 1000 nM.

The compound `C=C[C@@H]1C[C@]1(NC(=O)[C@@H]1Cc2cc(Oc3cccc(Cl)c3)ccc2CN1C(=O)[C@@H](Nc1ccc(F)cc1)C(C)(C)C)C(=O)NS(=O)(=O)C1(C)CC1` [Compound 25] had an IC50 in assay [1] of under 100 nM.
